Experimental data from patent US9695155B2, “Herbicidal substituted pyrimidinyloxy benzene compounds” (E. I. DU PONT DE NEMOURS AND COMPANY, priority 2013, dated 2017).

How the values were obtained:
ragweed = experiment: Test C preemergence; assay type: in vivo, Ambrosia elatior
How it was run: (§1)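 Rated visually on 0–100 (100 = complete control) after 13–15 days under glass. Treatments went onto freshly seeded loam/sand soil or onto emerged plants at the 1- to 4-leaf stage, using a surfactant-containing solvent formulation.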

soybean = experiment: Test C preemergence; assay type: in vivo, Glycine max
How it was run: as §1

barnyardgrass [1] = experiment: Test C preemergence; assay type: in vivo, Echinochloa crus-galli
How it was run: as §1

morningglory = experiment: Test C preemergence; assay type: in vivo, Ipomoea coccinea
How it was run: as §1

giant foxtail = experiment: Test A preemergence; assay type: in vivo, Setaria faberii; details: for Foxtail, Giant plant response rating (0 to 100 scale): 125 g ai/ha
How it was run: (§2)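 Visual injury scored 0–100 (100 = complete control) against untreated controls about 10 days after treatment in a greenhouse. Test chemicals, formulated with surfactant in non-phytotoxic solvent, were sprayed on soil preemergence or on 2-10 cm, one- to two-leaf plants postemergence.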

oilseed rape = experiment: Test C preemergence; assay type: in vivo, Brassica napus
How it was run: as §1

blackgrass = experiment: Test C preemergence; assay type: in vivo, Alopecurus myosuroides
How it was run: as §1

waterhemp = experiment: Test C preemergence; assay type: in vivo, Amaranthus rudis
How it was run: as §1

barnyardgrass [2] = experiment: Test A preemergence; assay type: in vivo, Echinochloa crus-galli; details: for Barnyardgrass plant response rating (0 to 100 scale, 0 is no effect, 100 is complete control): 125 g ai/ha
How it was run: as §2

corn = experiment: Test C preemergence; assay type: in vivo, Zea mays
How it was run: as §1

[3] = 16 g ai/ha, preemergence, scale 0 to 100 (0 no effect, 100 complete control)
[4] = 125 g ai/ha, preemergence, scale 0 (no effect) to 100 (complete control)
[5] = Preemergence, 62 g ai/ha, scale 0 to 100, 0 no effect, 100 complete control
[6] = 31 g ai/ha, 0 to 100 scale where 0 is no effect and 100 is complete control, visual, approximately 10 days

`N#Cc1cccc(Oc2ncc(Cl)cn2)c1-n1cnc(C(F)(F)F)c1` [Compound 252, 3-[(5-chloro-2-pyrimidinyl)oxy]-2-[4-(trifluoromethyl)-1H-imidazol-1-yl]benzonitrile] was tested, and the pest or weed control at 16 g/ha (ragweed; Ambrosia artemisiifolia, pre-emergence, 16 g ai/ha, preemergence, scale 0 to 100 (0 no effect, 100 complete control), read-out: Ragweed plant response rating) was 40%, the pest or weed control at 125 g/ha (ragweed; Ambrosia artemisiifolia, pre-emergence, 125 g ai/ha, preemergence, scale 0 (no effect) to 100 (complete control), read-out: Ragweed plant response rating) was 100% and the pest or weed control at 62 g/ha (ragweed; Ambrosia artemisiifolia, pre-emergence, Preemergence, 62 g ai/ha, scale 0 to 100, 0 no effect, 100 complete control, read-out: Plant response rating, Ragweed) was 98%. It also gave a plant injury at 16 g/ha (soybean; Glycine max, pre-emergence, 16 g ai/ha, preemergence, scale 0 to 100 (0 no effect, 100 complete control), read-out: Soybean plant response rating) of 65%, a plant injury at 125 g/ha (soybean; Glycine max, pre-emergence, 125 g ai/ha, preemergence, scale 0 (no effect) to 100 (complete control), read-out: Soybean plant response rating) of 98% and a plant injury at 62 g/ha (soybean; Glycine max, pre-emergence, Preemergence, 62 g ai/ha, scale 0 to 100, 0 no effect, 100 complete control, read-out: Plant response rating, Soybean) of 95%. The pest or weed control at 16 g/ha (barnyardgrass [1]; Echinochloa crus-galli, pre-emergence, 16 g ai/ha, preemergence, scale 0 to 100 (0 no effect, 100 complete control), read-out: Barnyardgrass plant response rating) was 10%, the pest or weed control at 125 g/ha (barnyardgrass [1]; Echinochloa crus-galli, pre-emergence, 125 g ai/ha, preemergence, scale 0 (no effect) to 100 (complete control), read-out: Barnyardgrass plant response rating) was 100% and the pest or weed control at 62 g/ha (barnyardgrass [1]; Echinochloa crus-galli, pre-emergence, Preemergence, 62 g ai/ha, scale 0 to 100, 0 no effect, 100 complete control, read-out: Plant response rating, Barnyardgrass) was 100%. It also gave a pest or weed control at 16 g/ha (morningglory; Ipomoea, pre-emergence, 16 g ai/ha, preemergence, scale 0 to 100 (0 no effect, 100 complete control), read-out: Morningglory plant response rating) of 45%, a pest or weed control at 125 g/ha (morningglory; Ipomoea, pre-emergence, 125 g ai/ha, preemergence, scale 0 (no effect) to 100 (complete control), read-out: Morningglory plant response rating) of 100% and a pest or weed control at 62 g/ha (morningglory; Ipomoea, pre-emergence, Preemergence, 62 g ai/ha, scale 0 to 100, 0 no effect, 100 complete control, read-out: Plant response rating, Morningglory) of 95%. For the same molecule, the “Foxtail, Giant plant response rating (0 to 100 scale)” value (giant foxtail) was 100, the pest or weed control at 31 g/ha (giant foxtail; Setaria faberi, pre-emergence, 240 h, 31 g ai/ha, 0 to 100 scale where 0 is no effect and 100 is complete control, visual, approximately 10 days, read-out: Plant response rating, Foxtail, Giant) was 70% and the pest or weed control at 500 g/ha (giant foxtail; Setaria faberi, pre-emergence, 240 h, 500 g ai/ha, 0 to 100 scale where 0 is no effect and 100 is complete control, read-out: Foxtail, Giant plant response rating) was 100%. For the same molecule, the plant injury at 16 g/ha (oilseed rape; Brassica napus, pre-emergence, 16 g ai/ha, preemergence, scale 0 to 100 (0 no effect, 100 complete control), read-out: Oilseed Rape plant response rating) was 80%, the plant injury at 125 g/ha (oilseed rape; Brassica napus, pre-emergence, 125 g ai/ha, preemergence, scale 0 (no effect) to 100 (complete control), read-out: Oilseed Rape plant response rating) was 100% and the plant injury at 62 g/ha (oilseed rape; Brassica napus, pre-emergence, Preemergence, 62 g ai/ha, scale 0 to 100, 0 no effect, 100 complete control, read-out: Plant response rating, Oilseed Rape) was 100%. The pest or weed control at 16 g/ha (blackgrass; Alopecurus myosuroides, pre-emergence, 16 g ai/ha, preemergence, scale 0 to 100 (0 no effect, 100 complete control), read-out: Blackgrass plant response rating) was 10%, the pest or weed control at 125 g/ha (blackgrass; Alopecurus myosuroides, pre-emergence, 125 g ai/ha, preemergence, scale 0 (no effect) to 100 (complete control), read-out: Blackgrass plant response rating) was 95% and the pest or weed control at 62 g/ha (blackgrass; Alopecurus myosuroides, pre-emergence, Preemergence, 62 g ai/ha, scale 0 to 100, 0 no effect, 100 complete control, read-out: Plant response rating, Blackgrass) was 90%. It also gave a pest or weed control at 16 g/ha (waterhemp; Amaranthus tuberculatus, pre-emergence, 16 g ai/ha, preemergence, scale 0 to 100 (0 no effect, 100 complete control), read-out: Waterhemp plant response rating) of 100%, a pest or weed control at 125 g/ha (waterhemp; Amaranthus tuberculatus, pre-emergence, 125 g ai/ha, preemergence, scale 0 (no effect) to 100 (complete control), read-out: Waterhemp plant response rating) of 100% and a pest or weed control at 62 g/ha (waterhemp; Amaranthus tuberculatus, pre-emergence, Preemergence, 62 g ai/ha, scale 0 to 100, 0 no effect, 100 complete control, read-out: Plant response rating, Waterhemp) of 100%. For the same molecule, the “Barnyardgrass plant response rating (0 to 100 scale, 0 is no effect, 100 is complete control)” value (barnyardgrass [2]) was 100, the pest or weed control at 31 g/ha (barnyardgrass [2]; Echinochloa crus-galli, pre-emergence, 240 h, 31 g ai/ha, 0 to 100 scale where 0 is no effect and 100 is complete control, visual, approximately 10 days, read-out: Plant response rating, Barnyardgrass) was 70% and the pest or weed control at 500 g/ha (barnyardgrass [2]; Echinochloa crus-galli, pre-emergence, 240 h, 500 g ai/ha, 0 to 100 scale where 0 is no effect and 100 is complete control, read-out: Barnyardgrass plant response rating) was 100%. For the same molecule, the plant injury at 16 g/ha (corn; Zea mays, pre-emergence, 16 g ai/ha, preemergence, scale 0 to 100 (0 no effect, 100 complete control), read-out: Corn plant response rating) was 10%, the plant injury at 125 g/ha (corn; Zea mays, pre-emergence, 125 g ai/ha, preemergence, scale 0 (no effect) to 100 (complete control), read-out: Corn plant response rating) was 70% and the Corn plant response rating (crop injury, 0 = no effect, 100 = complete kill) at 62 g/ha (corn; Zea mays, pre-emergence, Preemergence, 62 g ai/ha, scale 0 to 100, 0 no effect, 100 complete control) was 40%.
In the case of `Fc1cccc(Oc2ncc(Cl)cn2)c1-n1cc(OCC(F)(F)F)cn1` [Compound 270], the “Ragweed plant response rating” value (ragweed; [3]) was 0, the “Ragweed plant response rating” value (ragweed; [4]) was 70 and the “Plant response rating, Ragweed” value (ragweed; [5]) was 45. For the same molecule, the “Soybean plant response rating” value (soybean; [3]) was 0, the “Soybean plant response rating” value (soybean; [4]) was 85 and the “Plant response rating, Soybean” value (soybean; [5]) was 25. The “Barnyardgrass plant response rating” value (barnyardgrass [1]; [3]) was 0, the “Barnyardgrass plant response rating” value (barnyardgrass [1]; [4]) was 100 and the “Plant response rating, Barnyardgrass” value (barnyardgrass [1]; [5]) was 90. The “Morningglory plant response rating” value (morningglory; [3]) was 0, the “Morningglory plant response rating” value (morningglory; [4]) was 100 and the “Plant response rating, Morningglory” value (morningglory; [5]) was 55. The “Plant response rating, Foxtail, Giant” value (giant foxtail; [6]) was 40, the “Foxtail, Giant plant response rating (0 to 100 scale)” value (giant foxtail) was 100 and the “Oilseed Rape plant response rating” value (oilseed rape; [3]) was 95. The “Oilseed Rape plant response rating” value (oilseed rape; [4]) was 100, the “Plant response rating, Oilseed Rape” value (oilseed rape; [5]) was 100 and the “Blackgrass plant response rating” value (blackgrass; [3]) was 0. For the same molecule, the “Blackgrass plant response rating” value (blackgrass; [4]) was 95, the “Plant response rating, Blackgrass” value (blackgrass; [5]) was 70 and the “Waterhemp plant response rating” value (waterhemp; [3]) was 80. For the same molecule, the “Waterhemp plant response rating” value (waterhemp; [4]) was 100, the “Plant response rating, Waterhemp” value (waterhemp; [5]) was 100 and the “Plant response rating, Barnyardgrass” value (barnyardgrass [2]; [6]) was 20. The “Barnyardgrass plant response rating (0 to 100 scale, 0 is no effect, 100 is complete control)” value (barnyardgrass [2]) was 100, the “Corn plant response rating” value (corn; [3]) was 0 and the “Corn plant response rating” value (corn; [4]) was 55. The “Plant response rating, Corn” value (corn; [5]) was 20.
